In PubChem BioAssay (NCI):
Several values for one entry are separate records, joined by “and”; a condition that tells them apart may be missing. Equal entries are not always repeated.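 A five-concentration, 48-hour dose response in 96-well plates underlies each endpoint, interpolated linearly between surrounding concentrations. GI50: concentration for 50% inhibition of growth. At the TGI there is no net growth.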

Assays:
Test in all cases: DTP human tumour cell line panel, 48 h
[1] = system: EKVX NSCLC
[2] = system: SF-268 CNS
[3] = system: U251 CNS
[4] = system: SNB-75 CNS
[5] = system: SK-MEL-5 melanoma
[6] = system: MALME-3M melanoma
[7] = system: KM12 colon
[8] = system: SF-539 CNS
[9] = system: OVCAR-8 ovarian
[10] = system: OVCAR-3 ovarian

| Structure (SMILES) | TGI [1] [µM] | TGI [2] [µM] | TGI [3] [µM] | TGI [4] [µM] | TGI [5] [µM] | TGI [6] [µM] | TGI [7] [µM] | TGI [8] [µM] | TGI [9] [µM] | TGI [10] [µM] | GI50 [2] [µM] | GI50 [3] [µM] | GI50 [5] [µM] | GI50 [7] [µM] | GI50 [9] [µM] | GI50 [4] |
| --- | --- | --- | --- | --- | --- | --- | --- | --- | --- | --- | --- | --- | --- | --- | --- | --- |
| COC(=O)[C@@](C)(COC(=O)C(C)(C)C)NC(=O)OC(C)(C)C | > 100 | > 100 | > 100 | > 100 | > 100 | > 100 | > 100 | > 100 | > 100 | – | – | – | – | – | – | – |
| COC(=O)CCc1c(Cc2ccc[nH]2)[nH]c(C(=O)OCc2ccccc2)c1C | 91.3 | 53.7 | 44.1 | – | 29.2 | 38.3 | 35.7 | 37.5 | 52.5 | 31 | – | – | – | – | – | – |
| COc1ccc2nc3c(c(NCCCN(C)C)c2c1)CCCC3 | 40.5 | – | 30.1 | 26.9 | 29.2 | 33.9 | 33 | 30.8 | 36.4 | 51.4 | – | – | – | – | – | – |
| CCCCCCCCCC(=O)N[C@@H](c1ccco1)[C@@H](O)C(=O)O[C@H]1C[C@@]2(O)[C@@H](OC(=O)c3ccccc3)[C@@H]3[C@]4(OC(C)=O)CO[C@@H]4C[C@H](O)[C@@]3(C)C(=O)[C@H](OC(C)=O)C(=C1C)C2(C)C | > 50 | 24.5 | 2.34 | – | 2.25 | 12.4 | 8.44 | 0.17 | 11 | 3.48 | – | – | – | – | – | – |
| Cc1ccnc2nc(N)ccc12 | > 100 | > 100 | > 100 | > 100 | > 100 | > 100 | > 100 | > 100 | > 100 | – | – | – | – | – | – | – |
| CC(=O)OC1C2CCC3C(C)(O)C4CC(O)C(C)(C)C4(O)C(O)CC13CC2(C)O (stereo unspecified) | > 100 | > 100 | – | > 100 | > 100 | – | > 100 | > 100 | > 100 | > 100 | – | – | – | – | – | – |
| [O-][n+]1c(CN2CCCCC2)nc2cccc3c2c1-c1ccccc1-3 | 49.2 | – | > 100 | 50.2 | 32.1 | 29 | > 100 | 88.4 | 98.2 | 46.5 | – | – | – | – | – | – |
| CC12CCCCC1=[N+]([O-])C(C)(C)N2O (stereo unspecified) | > 100 | > 100 | > 100 | – | > 100 | > 100 | > 100 | > 100 | > 100 | > 100 | – | – | – | – | – | – |
| CC1(C)C(CCO)CC1n1ccc(=O)[nH]c1=O (stereo unspecified) | > 100 | > 100 | > 100 | > 100 | > 100 | – | > 100 | > 100 | – | > 100 | – | – | – | – | – | – |
| CN(C)c1ccc(/C=C/C(=O)N[C@@H]2C(=O)N3[C@@H]2SC(C)(C)[C@@H]3C(=O)O)cc1 | > 100 | > 100 | > 100 | > 100 | > 100 | – | > 100 | > 100 | > 100 | > 100 | – | – | – | – | – | – |
| C=C(C)C1CC/C(C)=C/CC[C@]2(C)O[C@@H]2CCC2=CC1OC2=O (stereo partly specified) | – | > 100 | > 100 | – | > 100 | – | > 100 | – | > 100 | – | > 100 | 21.7 | 78.8 | 21.6 | > 100 | – |
| CCOC(=O)c1cc2c(OCc3ccccc3)c(OC)cc3c2c(n1)N(c1ccc(OC)cc1)C(C)C3 (stereo unspecified) | > 50 | > 50 | > 50 | > 50 | > 50 | > 50 | – | – | > 50 | > 50 | – | – | – | – | – | – |
| O=c1c2ccccc2nc(-c2ccccc2)n1NC(=S)Nc1ccc(Cl)cc1 | – | > 100 | > 100 | > 100 | > 100 | > 100 | > 100 | > 100 | > 100 | – | – | – | – | – | – | – |
| CCN(CC)CCCNC(=O)c1cc2cc(NC(=O)c3cc4cc([N+](=O)[O-])ccc4[nH]3)ccc2[nH]1 | > 100 | > 100 | – | > 100 | > 100 | – | > 100 | > 100 | > 100 | 75.8 | – | – | – | – | – | – |
| Cc1cn(C2CC(CCCO)C(CO)O2)c(=O)[nH]c1=O (stereo unspecified) | > 100 | > 100 | > 100 | > 100 | > 100 | > 100 | > 100 | – | > 100 | > 100 | – | – | – | – | – | > 100 µM and 30.5 µM |
| COC(=O)c1c(CC(Cc2ccc3c(c2)CCCC3)C(=O)OC)ccc2c1CCCC2 (stereo unspecified) | 77.1 | > 100 | > 100 | – | > 100 | > 100 | > 100 | > 100 | > 100 | > 100 | – | – | – | – | – | – |
